Data as given in patent US10118894B2, “Isoindolinone derivatives useful as antiviral agents” (priority 2014, dated 2018).

What follows are molecules tested on HIV (assay: MT4 Assay (anti-HIV activity)). Details: Human immunodeficiency virus 1, MT4, 96 h, read-out: HIV MT4 Assay IC50.
Format: cell-based
Experimental: Antiviral HIV activity and cytotoxicity values for compounds of the invention from Table 1 were measured in parallel in the HTLV-1 transformed cell line MT-4 based on the method previously described (Hazen et al., 2007, In vitro antiviral activity of the novel, tyrosyl-based human immunodeficiency virus (HIV) type 1 protease inhibitor brecanavir (GW640385) in combination with other antiretrovirals and against a panel of protease inhibitor-resistant HIV (Hazen et al., “In vitro antiviral activity of the novel, tyrosyl-based human immunodeficiency virus (HIV) type 1 protease inhibitor brecanavir (GW640385) in combination with other antiretrovirals and against a panel of protease inhibitor-resistant HIV”, Antimicrob. Agents Chemother. 2007, 51: 3147-3154; and Pauwels et al., “Sensitive and rapid assay on MT-4 cells for the detection of antiviral compounds against the AIDS virus”, J. of Virological Methods 1987, 16: 171-185).
Luciferase activity was measured 96 hours later by adding a cell titer glo (Promega, Madison, Wis.). Percent inhibition of cell protection data was plotted relative to no compound control. Under the same condition, cytotoxicity of the compounds was determined using cell titer Glo™ (Promega, Madison, Wis.). IC50s were determined from a 10 point dose response curve using 3-4-fold serial dilution for each compound, which spans a concentration range >1000 fold.
These values are plotted against the molar compound concentrations using the standard four parameter logistic equation: y=((Vmax*x^n)/(K^n+x^n))+Y2
`Cc1c(-c2c(C)c3c(c(C)c2[C@H](OC(C)(C)C)C(=O)O)C(=O)N(Cc2ccccc2)C3)cc(F)c2c1CCCO2` (atropisomer, axis not shown; (M)) [Example 5, (S)-2-((M)-2-Benzyl-6-(8-fluoro-5-methylchroman-6-yl)-4,7-dimethyl-3-oxoisoindolin-5-yl)-2-(tert-butoxy)acetic acid] was tested, and the IC50 was 5 nM.
`Cc1c(-c2c(C)c3c(c(C)c2[C@H](OC(C)(C)C)C(=O)O)C(=O)N(Cc2ccccc2)C3)cc(F)c2c1NCCO2` (atropisomer, axis not shown; (M)) [Example 7, (S)-2-((M)-2-benzyl-6-(8-fluoro-5-methyl-3,4-dihydro-2H-benzo[b][1,4]oxazin-6-yl)-4,7-dimethyl-3-oxoisoindolin-5-yl)-2-(tert-butoxy)acetic acid] showed an IC50 of 14 nM.
Molecule `Cc1ccc(-c2c(C)c3c(c(C)c2C(OC(C)(C)C)C(=O)O)C(=O)N(Cc2ccccc2)C3)cc1` (stereo not shown) [Example 1, 2-(2-Benzyl-4,7-dimethyl-3-oxo-6-(p-tolyl)isoindolin-5-yl)-2-(tert-butoxy)acetic acid] has an IC50 of 25 nM.
`Cc1ccc(-c2c(C)c3c(c(C)c2[C@H](OC(C)(C)C)C(=O)O)C(=O)N(Cc2ccccc2)C3)cc1` [Example 2] showed an IC50 of 42 nM.
`Cc1c2c(c(C)c(C(OC(C)(C)C)C(=O)O)c1-c1ccc(Cl)cc1)C(=O)N(Cc1ccccc1)C2` (stereo not shown) [Example 3, 2-(2-benzyl-6-(4-chlorophenyl)-4,7-dimethyl-3-oxoisoindolin-5-yl)-2-(tert-butoxy)acetic acid] was tested, and the IC50 was 86 nM.
For `Cc1c2c(c(C)c(C(OC(C)(C)C)C(=O)O)c1-c1ccc3c(c1)CCCO3)C(=O)N(Cc1ccccc1)C2` (stereo not shown) [Example 4, 2-(2-benzyl-6-(chroman-6-yl)-4,7-dimethyl-3-oxoisoindolin-5-yl)-2-(tert-butoxy)acetic acid], the IC50 was 52 nM.
`Cc1c2c(c(C)c([C@H](OC(C)(C)C)C(=O)O)c1C1=CCC(C)(C)CC1)C(=O)N(Cc1ccccc1)C2` [Example 6, (S)-2-(2-benzyl-6-(4,4-dimethylcyclohex-1-en-1-yl)-4,7-dimethyl-3-oxoisoindolin-5-yl)-2-(tert-butoxy)acetic acid] gave an IC50 of 36 nM.
